This note sets out measurements from ChEMBL document CHEMBL5528004, “Development of a new class of potent and highly selective G protein-coupled receptor kinase 5 inhibitors and structural insight from crystal structures of inhibitor complexes” (Eur J Med Chem, 2024).

Assay [1] addresses T1, Beta-adrenergic receptor kinase 1 (Bos taurus, UniProt P21146).
T1 sequence (P21146 whole entry): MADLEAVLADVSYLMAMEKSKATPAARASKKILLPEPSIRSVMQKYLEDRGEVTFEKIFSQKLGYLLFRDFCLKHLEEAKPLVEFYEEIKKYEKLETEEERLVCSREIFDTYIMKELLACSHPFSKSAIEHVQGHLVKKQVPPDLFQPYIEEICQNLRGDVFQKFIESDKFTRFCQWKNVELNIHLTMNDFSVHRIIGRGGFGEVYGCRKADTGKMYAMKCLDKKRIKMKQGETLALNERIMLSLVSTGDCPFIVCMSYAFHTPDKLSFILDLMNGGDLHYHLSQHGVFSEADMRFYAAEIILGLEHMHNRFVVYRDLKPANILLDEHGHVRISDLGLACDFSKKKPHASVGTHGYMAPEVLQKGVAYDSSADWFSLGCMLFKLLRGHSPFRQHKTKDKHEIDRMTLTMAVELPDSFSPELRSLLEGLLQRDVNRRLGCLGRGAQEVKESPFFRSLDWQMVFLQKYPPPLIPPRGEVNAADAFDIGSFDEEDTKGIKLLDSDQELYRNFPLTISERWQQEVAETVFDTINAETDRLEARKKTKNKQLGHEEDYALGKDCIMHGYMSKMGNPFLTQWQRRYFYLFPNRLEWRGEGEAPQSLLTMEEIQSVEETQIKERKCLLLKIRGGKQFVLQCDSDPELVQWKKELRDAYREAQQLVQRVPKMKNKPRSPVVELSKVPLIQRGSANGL
Put plainly: Inhibition of bovine GRK2 expressed in baculovirus infected insect cell using tubulin as substrate incubated for 5 mins in presence of [gamma-32P]-ATP by radiometric assay.

In assay [2] the target is G protein-coupled receptor kinase 5 (Homo sapiens, UniProt P34947). Put plainly: Inhibition of human GRK5 (1 to 590) expressed in Escherichia coli using tubulin as substrate incubated for 5 mins in presence of [gamma-32P]-ATP by radiometric assay.
Assay [3] can be described thus: Selectivity index, ratio of IC50 for inhibition of bovine GRK2 to IC50 for inhibition of human GRK5.

Sequence of G protein-coupled receptor kinase 5 (P34947 whole entry): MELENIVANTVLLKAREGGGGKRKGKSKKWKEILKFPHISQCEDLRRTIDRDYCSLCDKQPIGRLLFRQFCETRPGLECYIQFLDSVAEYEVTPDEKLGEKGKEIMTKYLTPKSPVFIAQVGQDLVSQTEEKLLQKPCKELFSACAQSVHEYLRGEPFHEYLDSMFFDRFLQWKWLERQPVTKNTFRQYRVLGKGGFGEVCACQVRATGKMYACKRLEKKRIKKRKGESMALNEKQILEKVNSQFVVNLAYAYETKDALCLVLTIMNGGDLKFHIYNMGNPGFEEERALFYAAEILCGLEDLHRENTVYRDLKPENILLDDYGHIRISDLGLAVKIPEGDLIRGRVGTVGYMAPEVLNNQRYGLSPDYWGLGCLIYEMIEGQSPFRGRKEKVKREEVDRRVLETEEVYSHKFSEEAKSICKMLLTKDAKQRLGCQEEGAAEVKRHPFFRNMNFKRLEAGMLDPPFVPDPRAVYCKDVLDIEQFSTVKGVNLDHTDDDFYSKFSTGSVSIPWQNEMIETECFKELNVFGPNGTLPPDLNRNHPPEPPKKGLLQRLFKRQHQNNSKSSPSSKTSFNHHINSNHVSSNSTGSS

With `Cc1[nH]c(/C=C2\C(=O)Nc3ccc(C(=O)NCc4ccc(F)cc4)cc32)c(C)c1NC(=O)[C@@H](O)c1ccco1`, the IC50 (usually the midpoint of a concentration-inhibition curve) in assay [1] was determined as 2.2 µM. `CC(=O)C(=O)Nc1c(C)[nH]c(/C=C2\C(=O)Nc3ccc(C(=O)N[C@H](C)c4ccc(F)cc4)cc32)c1C`: in assay [1], the IC50 is 200 µM.

Consider `Cc1[nH]c(/C=C2\C(=O)Nc3ccc(C(=O)N[C@H](C)c4ccc(F)cc4)cc32)c(C)c1NC(=O)C(=O)c1ccco1`, for which the IC50 in assay [1] was over 1000 µM.

In the case of `Cc1[nH]c(/C=C2\C(=O)Nc3ccc(C(=O)N[C@H](C)c4ccc(F)cc4)cc32)c(C)c1NC(=O)C(=O)c1ccccc1`, the IC50 was 1.1 µM in assay [2] and over 1000 µM in assay [1]. Moreover, in assay [3], the Ratio IC50 turned out to be 900.

For `Cc1[nH]c(/C=C2\C(=O)Nc3ccc(C(=O)N[C@H](C)c4ccc(F)cc4)cc32)c(C)c1NC(=O)[C@@H](O)c1ccccc1`, the IC50 in assay [1] turned out to be 90 µM.

Turning to `Cc1[nH]c(/C=C2\C(=O)Nc3ccc(C(=O)N[C@H](C)c4ccc(F)cc4)cc32)c(C)c1NC(=O)[C@H](C)O`, the IC50 in assay [1] is 100 µM.

For `Cc1[nH]c(/C=C2\C(=O)Nc3ccc(C(=O)NCc4ccc(F)cc4)cc32)c(C)c1NC(=O)[C@H](O)c1ccccc1`, the IC50 in assay [1] was 30 µM.

On to `Cc1[nH]c(/C=C2\C(=O)Nc3ccc(C(=O)N[C@H](C)c4ccc(F)cc4)cc32)c(C)c1NC(=O)[C@@H](C)O`, for which the IC50 in assay [1] came out at 600 µM.
